Measured values reported in ChEMBL document CHEMBL1159234, “Antitumor agents, 157. Absolute structures of cumingianosides A-F, antileukemic triterpene glucosides, and structures of the hydrolysates of cumingianoside A” (J Nat Prod, 1995).

Tested on: MOLT-4
Assay: Cytotoxicity against human MOLT4 cells
Assay type: functional, cell-based

Row | SMILES | EC50 [nM]
1 | CC(=O)OC[C@H]1O[C@@H](O[C@@H]2C[C@H]3C(C)(C)[C@H](OC(C)=O)CC[C@]3(C)[C@H]3CC[C@]45C[C@]4(CC[C@H]5[C@@H](C)C[C@@H](O)[C@H](O)C(C)(C)O)[C@@]32C)[C@H](O)[C@@H](O)[C@@H]1O [CUMINGIANOSIDE A] | < 6.25
2 | COC(C)(C)[C@@H](O)[C@H](O)C[C@H](C)[C@@H]1CC[C@]23C[C@]12CC[C@@H]1[C@@]2(C)CC[C@@H](OC(C)=O)C(C)(C)[C@@H]2C[C@@H](O[C@@H]2O[C@H](COC(C)=O)[C@@H](O)[C@H](O)[C@H]2O)[C@]13C [CUMINGIANOSIDE C] | < 4.5
